According to patent US10064865B2, “Composition comprising phosphodiesterase type 5 inhibitor for inhibiting apoptosis of nerve cells” (ARIBIO INC., priority 2012, dated 2018):
Marks after values point to notes of the source that are not given here.

Key:
PARP = assay: Example 2 immunohistochemistry: PARP-immunoreactive cells; type: in vivo, Sprague-Dawley (SD) rats; conditions: for Numbers of neurons: PARP+: 1 mg/kg s.c. once a day for 14 days, 29 days after neuron apoptosis
Procedure: The induction of neuron apoptosis was carried out by damaging the right hemisphere of the brain of animals. Specifically, animals were anesthetized with 2 or 3% isoflurane in the mixture of 70% N2O and 28.5% O2, and were maintained with 1 to 1.5% isoflurane in the mixture of 70% N2O and 28.5% O2. After that the temporalis muscle was bisected and reflected through an incision made midway between the eye and the eardrum canal. The proximal MCA was exposed through a subtemporal craniectomy by microdental drills without removing the zygomatic arch and without transecting the facial nerve. […] Mortality was less than 5%. For sham control, all procedures were performed in the same way, with the exception of the occlusion of the MCA.
After deparaffinized of prepared […] histological paraffin sections, citrate buffer antigen (epitope) retrieval pretreatment were conducted as previously (Shi S R et al., J Histochem Cytochem. 41:1599-604(1993)). Briefly, pre-heat water bath with staining dish containing 10 mM citrate buffers (pH 6.0) until temperature reaches 95-100° C. Immerse slides in the staining dish and place the lid loosely on the staining dish. Incubate for 20 minutes and turn off the water bath. Place the staining dish at room temperature and allow the slides to cool for 20 minutes. After epitope retrievals, sections were immunostained using avidin-biotin complex (ABC) methods for caspase-3 and PARP. Endogenous peroxidase activity was blocked by incubated in methanol and 0.3% H2O2 for 30 minutes, and non-specific binding of immunoglobulin was blocked with normal horse serum blocking solution (Vector Lab., Burlingame, Calif., USA. Dilution 1:100) for 1 hr in humidity chamber. Primary antiserum were treated for overnight at 4° C. in humidity chamber, and then incubated with biotinylated universal secondary antibody (Vector Lab., Dilution 1:50) and ABC reagents (Vectastain Elite ABC Kit, Vector Lab., Dilution 1:50) for 1 hr at room temperature in humidity chamber. Finally, reacted with peroxidae substrate kit (Vector Lab.) for 3 min at room temperature. All sections were rinse in 0.01M PBS for 3 times, between steps. The neurons occupied by over 10% of immunoreactivities, the density, of each antiserum for caspase-3 and PARP were regarded as positive, and the mean numbers of caspase-3 and PARPimmunoreactive cells dispersed in the mm^2 of ipsilateral peri-infarct/defect cerebral cortex were counted using an automated image analysis process as establish methods (Lee et al., 2010; Song et al., 2012), respectively. The histopathologist was blinded to the group distribution when performing the analysis.
All data were expressed as mean±standard deviation (S.D.) of ten rats. Multiple comparison tests for different dose groups were conducted. Variance homogeneity was examined using the Levene test (Levene A, Clin Otalary, 1981; 6:145-51). […] Statistical analyses were conducted using SPSS for Windows (Release 14K, SPSS Inc., USA; Ludbrook, Clin Exp Pharmacol Physiol, 1997; 24:294-6). In addition, the percent changes as compared with neuron apoptosis control and mirodenafil treated rats were calculated to help the understanding of the efficacy of test substances as follow Equation 6 and 7. Percentage Changes as Compared with Sham Control (%)=[((Data of neuron apoptosis control−Data of sham control rat)/Data of sham control rats)×100] [EQUATION 6] Percentage Changes as Compared with neuron apoptosis Control (%)=[((Data of test material treated rats−Data of neuron apoptosis control rats)/Data of neuron apoptosis control rats)×100] [EQUATION 7]

[1] = tested on: neuron apoptosis-operated rats; assay: Example 1 forelimb placing test; type: in vivo, Sprague-Dawley (SD) rats
Procedure: Sensorimotor function was evaluated by use of limb placing de Ryck M et al., Stroke. 20:1383-90(1989)) and body swing (Borlongan and Sanberg, J Neurosci. 15:5372-8(1995)) tests. These tests were performed one day before neuron apoptosis to obtain a baseline and then at 1, 3, 7, 14, 21 and 28 days after neuron apoptosis. Behavioral tests were done before drug administration on days when both were scheduled. The investigator performing the surgery and behavioral assessments was blinded to treatment assignment.
Limb placing test: Forelimb and hindlimb placement were assessed independently. For the forelimb placing test, the rats were held by their torso with their forepaws hanging free and moved slowly toward the edge of a tabletop, stopping short of touching the vibrissae (for vision-induced placing), touching the vibrissae (for vibrissae-induced placing), making light contact with the front of the forepaw to the edge of the tabletop (for tactile-induced placing), and pressing the forepaws to the edge of the table with increased pressure (for proprioceptive-induced placing). Hindlimb placing was conducted in the same manner as above but with tactile and proprioceptive stimulation applied to the front/top of each hindlimb. Each limb for placing in response to visual, vibrissae, tactile, and proprioceptive stimulation are scored in the following manner (A total of 12 points in forelimb placing test and 6 points in hindlimb placing test means maximal neurological deficit, and 0 points means normal performance):
Normal performance=0 points;
Performance with unilateral limb=1 point;
Performance with a delay (2 seconds) and/or incomplete=2 point;
All data were expressed as mean±standard deviation (S.D.) of ten rats. Multiple comparison tests for different dose groups were conducted. Variance homogeneity was examined using the Levene test (Levene A, Clin Otalary, 1981; 6:145-51). […] Statistical analyses were conducted using SPSS (Release 14K, SPSS Inc., USA; Ludbrook, Clin Exp Pharmacol Physiol, 1997; 24:294-6). In addition, the percent changes between neuron apoptosis control and mirodenafil treated rats were calculated to help the understanding of the efficacy of test material as follow equation 3. Percentage changes as compared with neuron apoptosis control (%)=[((Data of mirodenafil treated groups−Data of neuron apoptosis control)/Data of neuron apoptosis control)×100] [EQUATION 3]

## CCCOc1ccc(S(=O)(=O)N2CCN(CCO)CC2)cc1-c1nc2c(CCC)cn(CC)c2c(=O)[nH]1 [Mirodenafil, mirodenafil]
PARP; 1 mg/kg from 24 hrs after surgery
  numbers of PARP-immunoreactive neurons at 29 days, change as compared with neuron apoptosis control: −53.92%
PARP; 1 mg/kg from 72 hrs after surgery
  numbers of PARP-immunoreactive neurons at 29 days, change as compared with neuron apoptosis control: −39.72%
PARP; 1 mg/kg from 168 hrs after surgery
  numbers of PARP-immunoreactive neurons at 29 days, change as compared with neuron apoptosis control: −15.68%
PARP; start 24 hrs after operation
  Numbers of neurons: PARP+: 36.14 ± 5.32^ab cells/mm^2 of cerebral cortex
PARP; start 72 hrs after operation
  Numbers of neurons: PARP+: 47.28 ± 5.36^ab cells/mm^2 of cerebral cortex
PARP; start 168 hrs after operation
  Numbers of neurons: PARP+: 66.13 ± 9.61^ac cells/mm^2 of cerebral cortex
[1]; 0.5 mg/kg group, day 1 after operation (before drug administration)
  Forelimb placing test score: 12.00 ± 0.00^d
[1]; 0.5 mg/kg group, day −1 (baseline)
  Forelimb placing test score: 0.70 ± 0.67
[1]; 0.5 mg/kg s.c. once a day, day 3 after operation
  Forelimb placing test score: 8.00 ± 1.15^a
[1]; 0.5 mg/kg s.c. once a day, day 7 after operation
  Forelimb placing test score: 7.80 ± 1.55^a
[1]; 0.5 mg/kg s.c. once a day, day 14 after operation
  Forelimb placing test score: 6.80 ± 1.14^ac
[1]; 0.5 mg/kg s.c. once a day, day 21 after operation
  Forelimb placing test score: 6.40 ± 1.17^a
[1]; 0.5 mg/kg s.c. once a day, day 28 after operation
  Forelimb placing test score: 5.40 ± 1.07^a
[1]; 0.5 mg/kg, 3 days after surgery
  forelimb placing test scores, change as compared with neuron apoptosis control: −3.61%
[1]; 0.5 mg/kg, 7 days after surgery
  forelimb placing test scores, change as compared with neuron apoptosis control: −10.34%
[1]; 0.5 mg/kg, 14 days after surgery
  forelimb placing test scores, change as compared with neuron apoptosis control: −12.82%
[1]; 0.5 mg/kg, 21 days after surgery
  forelimb placing test scores, change as compared with neuron apoptosis control: −11.11%
[1]; 0.5 mg/kg, 28 days after surgery
  forelimb placing test scores, change as compared with neuron apoptosis control: −12.90%
[1]; 1 mg/kg group, day 1 after operation (before drug administration)
  Forelimb placing test score: 12.00 ± 0.00^d
[1]; 1 mg/kg group, day −1 (baseline)
  Forelimb placing test score: 0.70 ± 0.48
[1]; 1 mg/kg s.c. once a day, day 3 after operation
  Forelimb placing test score: 6.80 ± 1.23^ab
[1]; 1 mg/kg s.c. once a day, day 7 after operation
  Forelimb placing test score: 6.10 ± 1.20^ab
[1]; 1 mg/kg s.c. once a day, day 14 after operation
  Forelimb placing test score: 5.30 ± 1.06^ab
[1]; 1 mg/kg s.c. once a day, day 21 after operation
  Forelimb placing test score: 4.20 ± 1.23^ab
[1]; 1 mg/kg s.c. once a day, day 28 after operation
  Forelimb placing test score: 2.70 ± 1.06^ab
[1]; 1 mg/kg, 3 days after surgery
  forelimb placing test scores, change as compared with neuron apoptosis control: −18.07%
[1]; 1 mg/kg, 7 days after surgery
  forelimb placing test scores, change as compared with neuron apoptosis control: −29.89%
[1]; 1 mg/kg, 14 days after surgery
  forelimb placing test scores, change as compared with neuron apoptosis control: −32.05%
[1]; 1 mg/kg, 21 days after surgery
  forelimb placing test scores, change as compared with neuron apoptosis control: −41.67%
[1]; 1 mg/kg, 28 days after surgery
  forelimb placing test scores, change as compared with neuron apoptosis control: −56.45%
[1]; 2 mg/kg group, day 1 after operation (before drug administration)
  Forelimb placing test score: 12.00 ± 0.00^d
[1]; 2 mg/kg group, day −1 (baseline)
  Forelimb placing test score: 0.60 ± 0.70
[1]; 2 mg/kg s.c. once a day, day 3 after operation
  Forelimb placing test score: 6.20 ± 0.92^ab
[1]; 2 mg/kg s.c. once a day, day 7 after operation
  Forelimb placing test score: 5.70 ± 0.67^ab
[1]; 2 mg/kg s.c. once a day, day 14 after operation
  Forelimb placing test score: 4.70 ± 0.67^ab
[1]; 2 mg/kg s.c. once a day, day 21 after operation
  Forelimb placing test score: 4.10 ± 0.88^ab
[1]; 2 mg/kg s.c. once a day, day 28 after operation
  Forelimb placing test score: 2.60 ± 0.84^ab
[1]; 2 mg/kg, 3 days after surgery
  forelimb placing test scores, change as compared with neuron apoptosis control: −25.30%
[1]; 2 mg/kg, 7 days after surgery
  forelimb placing test scores, change as compared with neuron apoptosis control: −34.48%
[1]; 2 mg/kg, 14 days after surgery
  forelimb placing test scores, change as compared with neuron apoptosis control: −39.74%
[1]; 2 mg/kg, 21 days after surgery
  forelimb placing test scores, change as compared with neuron apoptosis control: −43.06%
[1]; 2 mg/kg, 28 days after surgery
  forelimb placing test scores, change as compared with neuron apoptosis control: −58.06%
